The text below walks through data of ChEMBL document CHEMBL6096717, “Novel 3-Pyrrolidineindole Derivatives as Serotonergic Psychedelic Agents for Treating Psychosis and Mental Illnesses Such as Depression and Post-Traumatic Stress Disorder” (ACS Med Chem Lett, 2025).

Sequence of 5-hydroxytryptamine receptor 2A (P28223 whole entry): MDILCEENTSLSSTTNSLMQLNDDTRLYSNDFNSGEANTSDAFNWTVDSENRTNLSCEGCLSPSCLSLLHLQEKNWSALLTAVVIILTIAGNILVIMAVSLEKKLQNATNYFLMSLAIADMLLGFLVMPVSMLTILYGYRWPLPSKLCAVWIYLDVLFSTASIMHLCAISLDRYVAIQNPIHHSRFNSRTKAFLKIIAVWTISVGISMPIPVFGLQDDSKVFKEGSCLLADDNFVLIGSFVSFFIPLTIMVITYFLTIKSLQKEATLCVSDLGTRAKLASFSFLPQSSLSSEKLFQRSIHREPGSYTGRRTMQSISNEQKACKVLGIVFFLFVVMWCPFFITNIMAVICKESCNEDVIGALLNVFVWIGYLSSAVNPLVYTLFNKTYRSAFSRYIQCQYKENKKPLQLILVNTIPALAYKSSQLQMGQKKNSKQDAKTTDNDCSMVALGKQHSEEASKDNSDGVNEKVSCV

This assay concerns the target 5-hydroxytryptamine receptor 2A (Homo sapiens, UniProt P28223). In words: Displacement of [3H]-ketanserin from human 5HT2A receptor incubated for 90 mins by Microbeta2 scintillation counting analysis.
For `[2H]C([2H])(c1c[nH]c2cccc(O)c12)[C@H]1CCCN1C([2H])([2H])[2H]`, the IC50 (as a rule, the concentration that gives 50% inhibition) was < 500 nM. The result for `[2H]C([2H])([2H])N1CCC[C@@H]1Cc1c[nH]c2cccc(O)c12` reads < 500 nM; that for `[2H]C([2H])([2H])N1CCC[C@@H]1Cc1c[nH]c2cccc(F)c12`, < 500 nM. `[2H]C([2H])([2H])N1CCC[C@@H]1Cc1c[nH]c2cccc(OC(=O)CCCCCCC/C=C\C/C=C\CCCC)c12`: the IC50 is < 500 nM. As for `[2H]C([2H])(c1c[nH]c2cccc(OC(=O)CCCCCCC/C=C\C/C=C\CCCC)c12)[C@H]1CCCN1C([2H])([2H])[2H]`, the IC50 was < 500 nM. With `[2H]C([2H])(c1c[nH]c2cccc(Cl)c12)[C@H]1CCCN1C([2H])([2H])[2H]` the figure was < 500 nM.
